Laboratory results as given in US7015212B1, “Thiazepine inhibitors of HIV-1 integrase” (The United States of America as represented by the …, priority 1999, dated 2006).
Where “and” joins values, the source holds several entries; their conditions need not be identical. Equal values may be shown once. Read-outs that look alike come from different tables or passages of the source.

Assays:
[1] = tested on: T4 lymphocytes (CEM cell line); experiment: Cytotoxicity in uninfected CEM cells (XTT toxicity control); conditions: read-out: Cell data (μM) CC50: 50% cytotoxic concentration; uninfected CEM cells, 6 days, XTT
Procedure: (§1) The anti-HIV drug testing was performed at NCI based on a protocol described by Weislow et al.^36 All compounds were dissolved in dimethyl sulfoxide and diluted 1:100 in cell culture medium. Exponentially growing T4 lymphocytes (CEM cell line) were added at 5000 cells per well. Frozen virus stock solutions were thawed immediately before use, suspended in complete medium to yield the desired multiplicity of infection (m. o. i.≈0.1), and added to the microtiter wells, resulting in a 1:200 final dilution of the compound. Uninfected cells with the compound served as a toxicity control, and infected and uninfected cells without the compound served as basic controls.
(§2) Cultures were incubated at 37° C. in a 5% CO2 atmosphere for 6 days. The tetrazolium salt, XTT was added to all wells, and cultures were incubated to allow formazan color development by viable cells. Individual wells were analyzed spectrophotometrically to quantitate formazan production, and in addition were viewed microscopically for detection of viable cells and confirmation of protective activity.

[2] = target: T1, purified HIV-1 integrase (HIV-1 IN) (Human immunodeficiency virus type 1 group M subtype B, UniProt P12497); experiment: biochemical;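 also: integrase at 200 nM exposed to inhibitor 30 min at 30 °C, then 1 h with 20 nM 5′-32P-labelled 21-mer DNA, 3′-processing or strand transfer products quantified on denaturing gels versus no-drug enzyme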
Procedure: (§3) To analyze the extent of 3′-processing and strand transfer using 5′-end labeled substrates, AE118 was 5′-end labeled using T4 polynucleotide kinase (Gibco BRL) and γ[^32P]-ATP (Dupont-NEN). To determine the extent of 30mer target strand generation during disintegration, AE157 was 5′-end labeled and annealed to AE156, AE146, and AE117. The kinase was heat-inactivated and AE117 was added to the same final concentration. The mixture was heated at 95° C., allowed to cool slowly to room temperature, and run through a G-25 Sephadex quick spin column (Boehringer Mannheim, Indianapolis, Ind.) to separate annealed double-stranded oligonucleotide from unincorporated label.
(§4) To determine the extent of 3′-processing and strand transfer, integrase was preincubated at a final concentration of 200 nM with the inhibitor in a reaction buffer (50 mM NaCl, 1 mM HEPES, pH 7.5, 50 μM EDTA, 50 μM dithiothreitol, 10% glycerol (w/v), 7.5 mM MnCl2, 0.1 mg/ml bovine serum albumin, 10 mM 2-mercaptoethanol, 10% dimethyl sulfoxide, and 25 mM MOPS, pH 7.2) at 30° C. for 30 minutes. Then, 20 nM of the 5′-end ^32P labeled linear oligonucleotide substrate was added, and incubation was continued for an additional one hour. Reactions were quenched by the addition of an equal volume (16 μ) of loading dye (98% deionized formamide, 10 mM EDTA, 0.025% xylene cyanol and 0.025% bromophenol blue). An aliquot (5 μl) was electrophoresed on a denaturing 20% polyacrylamide gel (0.09 M tris-borate pH 8.3, 2 mM EDTA, 20% acrylamide, 8M urea).
(§5) Gels were dried, exposed in a PhosphorImager cassette, and analyzed using a Molecular Dynamics PhosphorImager (Sunnyvale, Calif.). Percent inhibition was calculated using the following equation: % I=100×[1−(D−C)/(N−C)] where C, N, and D are the fractions of 21-mer substrate converted to 19-mer (3′-processing product) or strand transfer products for DNA alone (C), DNA plus integrase (N), and integrase plus drug (D). All IC50 values were determined by plotting the drug concentration versus percent inhibition, and determining the concentration which produced 50% inhibition.

[3] = Cytotoxicity in uninfected CEM cells (XTT toxicity control); conditions: human, uninfected CEM cells (T4 lymphocytes)
Procedure: as §1, §2

HIV-1 IN = target: T2, HIV-1 IN (Human immunodeficiency virus type 1 group M subtype B, UniProt P12497); experiment: HIV-1 integrase inhibition with Mg+2 as cofactor (gel assay); assay type: biochemical; conditions: compared with Mn+2, 1000, 333, 111, 37 μM
T2 construct: An expression system for the wild-type integrase and the IN^50–212 (F185K) were obtained from the Laboratory of Molecular Biology, NIDDK; made in house
Procedure: FIGS. 2 and 3 show concentration dependent inhibition of HIV-1 IN by thiazolothiazepines 1, 19, and 20 using Mn^+2 (FIG. 2) and Mg^+2 (FIG. 3) as a cofactor. Lane 1, DNA alone, lanes 2 and 15 DNA and integrase, lanes 3–6, 7–10, 11–14 DNA, integrase, and compounds 1, 19, and 20 at 1000, 333, 111, and 37 μM, respectively. See Table 1 for compound identifiers 1, 19, 20.
A 21-mer oligonucleotide corresponding to the last 21 bases on the HIV-1 viral DNA in the U5 region of long terminal repeat (LTR) was radiolabeled with ^32P. This is shown in the FIGS. 2 and 3 as a band corresponding to DNA alone. Integrase will cleave the last two bases of this DNA in the presence of Mn^+2 or Mg^+2 to give a 19-mer DNA substrate (lane 2) which runs faster on the gel and is indicated as 19-mer on the Figures. When an inhibitor is added this process is blocked, therefore the original 21-mer DNA would not be cut. When an inhibitor is added at various concentrations, percent inhibition at every concentration will be calculated by quantification of the intensity of each band using an Imagequant program.
The gels are run using polyacrylamide according to the standard procedures. Upon completion of electrophoresis run, the gels are dried and exposed to a phosphorimager cassette. The cassettes are analyzed by the phosphorimager, and the bands are shown on a computer screen. The intensity of each band is quantitated, plotted against concentrations of drugs, and the IC50 values are calculated from the graphs.

HIV-1 infected CEM cells = experiment: Anti-HIV assay in cultured CEM cells (NCI XTT protocol); assay type: cell-based
Procedure: as §1, §2

[4] = target: T1, purified HIV-1 integrase (HIV-1 IN)
Procedure: as §3, §4, §5

melting point	SMILES	CC50 [1]	IC50 [2]	CC50 at 6 days [3]	also measured
	O=C1Sc2ccc(Cl)cc2C(=O)N2CCSC12 (racemic) [Compound 2, (±)-7-Chloro-2,3-dihydro-5H-thiazolo[2,3-c][1,4]benzothiazepine-5,11 (11aH)-dione]	> 50 µM			
219 to 220 °C	O=C1Sc2ccc(Br)cc2C(=O)N2CCSC12 (racemic) [Compound 3, (±)-7-Bromo-2,3-dihydro-5H-thiazolo[2,3-c][1,4]benzothiazepine-5,11 (11aH)-dione]				
	Cc1ccc2c(c1)C(=O)N1CCSC1C(=O)S2 (racemic) [Compound 4, (±)-2,3-Dihydro-7-methyl-5H-thiazolo[2,3-c][1,4]benzothiazepine-5,11 (11aH)-dione]		55 µM and 64 µM		
	O=C1Sc2ccccc2C(=O)N2CSCC12 (racemic) [Compound 5]		227 µM and 208 µM	> 200 µM	
204 to 205 °C	O=C1Sc2ccc(Cl)cc2C(=O)N2CSCC12 (racemic) [Compound 6, (±)-7-Chloro-1,11a-dihydro-3H,5H,11H-thiazolo[4,3-c][1,4]benzothiazepine-5,11-dione]	> 100 µM			
213 to 214 °C	O=C1Sc2ccc(Br)cc2C(=O)N2CSCC12 (racemic) [Compound 7, (±)-7-Bromo-1,11a-dihydro-3H,5H,11H-thiazolo[4,3-c][1,4]benzothiazepine-5,11-dione]	> 200 µM			
	Cc1ccc2c(c1)C(=O)N1CSCC1C(=O)S2 (racemic) [Compound 8, (±)-1,11a-Dihydro-7-methyl-3H,5H,11H-thiazolo[4,3-c][1,4]benzothiazepine-5,11-dione]	35 µM			
231 to 232 °C	O=C1Sc2cc([N+](=O)[O-])ccc2C(=O)N2CSCC12 (racemic) [Compound 9, (±)-1,11a-Dihydro-8-nitro-3H,5H,11H-thiazolo[4,3-c][1,4]benzothiazepine-5,11-dione]	> 50 µM			
	COc1ccc2c(c1)C(=O)N1CSCC1C(=O)S2 (racemic) [Compound 10, (±)-1,11a-dihydro-7-methoxy-3H,5H, 11H-thiazolo[4,3-c][1,4]benzothiazepine-5,11-dione]	> 200 µM			
	O=C1Sc2ccccc2C(=O)N2C[S+]([O-])CC12 (racemic) [Compound 16, (±)-cis-1,11a-Dihydro-3H,5H,11H-thiazolo[4,3-c][1,4]benzothiazepine-5,11-dione 2-oxide]		215 µM and 222 µM and 200 µM and 185 µM		
	O=C1Sc2cc3ccccc3cc2C(=O)N2CCSC12 (racemic) [Compound 19, (±)-2,3-Dihydro-5H-naphto[2,3-f]thiazolo[2,3-c][1,4]thiazepine-5,13(13aH)-dione]		47 ± 6 µM	> 316 µM	activity against IN in the presence of Mg+2 (HIV-1 IN): active in the presence of Mg^+2 within the same concentration range as in Mn^+2; therapeutic index (TI=CC50/EC50) (HIV-1 infected CEM cells): > 5
	O=C1Sc2cc3ccccc3cc2C(=O)N2CSCC12 (racemic) [Compound 20, (±)-1,13a-Dihydro-3H,5H,11H-naphto[2,3-f]thiazolo[4,3-c][1,4]thiazepine-5,13-dione]		92 µM and 100 µM	> 316 µM	activity against IN in the presence of Mg+2 (HIV-1 IN): active in the presence of Mg^+2 within the same concentration range as in Mn^+2
137 to 141 °C	O=C1c2ccccc2SC(O)(c2ccccc2)C2CCCN12 (racemic) [Compound 26, (±)-2,3,11,11a-Tetrahydro-11-hydroxy-11-phenyl-1H,5H-pyrrolo [2,1-c][1,4]benzothiazepin-5-one]				
	CN1CCN([C@@H]2Sc3ccccc3C(=O)N3CCC[C@@H]23)CC1 (racemic) [Compound 27, (±)-cis-2,3,11,11a-Tetrahydro-11-(4-methylpiperazin-1-yl)-1H,5H-pyrrolo[2,1-c][1,4]benzothiazepin-5-one]	> 125 µM			
161 to 162 °C	CN1CCN(Cc2ccc3n2Cc2ccccc2SC3c2ccccc2)CC1 (racemic) [Compound 31, (±)-3-[(4-Methylpiperazin-1-yl)methyl]-11-phenyl-5H,11H-pyrrolo [2,1-c][1,4]benzothiazepine]				
	O=C1Sc2ccccc2C(=O)N2CCSC12 (stereo not drawn) [Compound 1]		110 µM and 146 µM	> 200 µM	activity against IN in the presence of Mg+2 (HIV-1 IN): active in the presence of Mg^+2 within the same concentration range as in Mn^+2; therapeutic index (TI=CC50/EC50) (HIV-1 infected CEM cells): > 1.8
	COc1cc2c(cc1OC)C(=O)N1CSCC1C(=O)S2 (stereo not drawn) [Compound 11]		330 µM and 670 µM and 630 µM	> 50 µM	
	COc1cc2c(cc1OC)C(=O)N1CCCC1C(=O)S2 (stereo not drawn) [Compound 13]			> 200 µM	
	O=C1Sc2ccccc2C(=O)N2CCCCC12 (stereo not drawn) [Compound 14]		343 µM and 406 µM and 495 µM	> 200 µM	
	CC(=O)OC1Sc2ccccc2C(=O)N2CCCC12 (stereo not drawn) [Compound 21]			> 200 µM	
	COC1Sc2ccccc2C(=O)N2CCCC12 (stereo not drawn) [Compound 22]	> 200 µM			
	COc1cc2c(cc1OC)C(=O)N1CCCC1CS2 (stereo not drawn) [Compound 24]			> 200 µM	
	O=C1c2ccccc2SC(O)C2CCCN12 (stereo not drawn) [Compound 25]			> 200 µM	
	O=C1Sc2ccccc2Cn2cccc21 [Compound 28]	> 200 µM			IC50 [4]: 590 µM and 300 µM
	CCOC(=O)C1Sc2ccccc2C(=O)n2cccc21 (stereo not drawn) [Compound 29]		> 1000 µM		
	CN(C)Cc1ccc2n1C(=O)c1ccccc1SC2c1ccc(F)cc1 (stereo not drawn) [Compound 30]		> 1000 µM		

SMILES	melting point	CC50 [1]	IC50 [2]	CC50 at 6 days [3]	also measured
Cc1ccc2c(c1)C(=O)N1CC[S+]([O-])C1C(=O)S2 (racemic) [Compound 15, (±)-cis-2,3-Dihydro-7-methyl-5H-thiazolo[2,3-c][1,4]benzothiazepine-5,11 (11aH)-dione 1-Oxide]	211 to 212 °C		590 ± 350 µM	> 100 µM	
O=C1Sc2ccc(Cl)cc2C(=O)N2C[S+]([O-])CC12 (racemic) [Compound 17, (±)-cis-7-Chloro-1,11a-dihydro-3H,5H,11H-thiazolo[4,3-c][1,4]benzothiazepine-5,11-dione 2-Oxide]	213 to 215 °C		280 µM and 200 µM and 260 µM and 215 µM		
COc1ccc2c(c1)C(=O)N1C[S+]([O-])CC1C(=O)S2 (racemic) [Compound 18, (±)-cis-1,11a-Dihydro-7-methoxy-3H,5H,11H-thiazolo[4,3-c][1,4]benzothiazepine-5,11-dione 2-Oxide]	172 to 174 °C		142 µM and 84.5 µM		
